Measured values: patent publication US20240207427A1, “SELECTIVE DRUG RELEASE FROM INTERNALIZED CONJUGATES OF BIOLOGICALLY ACTIVE COMPOUNDS” (priority 2021, published 2024)
Where two headings read alike, the source gives them in different places.

Legend:
Format in all cases: cell-based
[1] = test system: B-lymphocyte cancer cells (SU-DHL4); test: In vitro potency (CellTiter-Glo, 96 h), SU-DHL-4; settings: Homo sapiens, SU-DHL-4, 96 h
Summary of the method: (§1)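 Medium: RPMI 1640 + 20% FBS. Pre-seeding: 24 h. Treatment: ADC or CPT free drug serial dilutions, 96 h, 37 °C. Read-out: luminescence; IC50 in ng/mL and nmol/L.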

[2] = test system: Ls174T cells; test: In vitro potency (CellTiter-Glo, 96 h), Ls174T; settings: Homo sapiens, LS174T
Summary of the method: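 Growth inhibition after 96 h at 37 °C with test article, measured by luminescence; cells in RPMI 1640, 20% FBS.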

[3] = test system: renal carcinoma cells (786-O); test: In vitro potency (CellTiter-Glo, 96 h), 786-O; settings: Homo sapiens, 786-0, 96 h
Summary of the method: (§2)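 Cells in log-phase growth seeded 24 h in RPMI 1640 with 20% FBS, then exposed to serially diluted ADC or CPT free drug for 96 h at 37 °C. Growth inhibition read by CellTiter-Glo luminescence; IC50 reported in ng/mL or nmol/L.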

[4] = test system: anaplastic large cell lymphoma cells (DEL); test: In vitro potency (CellTiter-Glo, 96 h), DEL
Summary of the method: as §1

[5] = test system: anaplastic large cell lymphoma cells (Karpas299); test: In vitro potency (CellTiter-Glo, 96 h), Karpas299; settings: Homo sapiens, KARPAS-299, 96 h
Summary of the method: as §2

[6] = test system: pancreatic cancer cells (BxPC3); test: In vitro potency (CellTiter-Glo, 96 h), BxPC3; settings: Homo sapiens, BXPC-3, 96 h
Summary of the method: as §2

[7] = test system: anaplastic large cell lymphoma cells (DELBVR); test: In vitro potency (CellTiter-Glo, 96 h), DELBVR
Summary of the method: as §2

[8] = test system: breast cancer cells (MDA-MB-231); test: In vitro potency (CellTiter-Glo, 96 h), MDA-MB-231; settings: Homo sapiens, MDA-MB-231, 96 h
Summary of the method: as §2

[9] = test system: Hodgkin's lymphoma cells (L540cy); test: In vitro potency (CellTiter-Glo, 96 h), L540cy
Summary of the method: as §2

[10] = test system: melanoma cells (A2058); test: In vitro potency (CellTiter-Glo, 96 h), A2058; settings: Homo sapiens, A2058, 96 h
Summary of the method: (§3)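 Four-day continuous exposure at 37 °C to serially diluted ADC or free camptothecin payload, in RPMI 1640 with 20% FBS after 24 h pre-plating. Luminescent signal gave IC50 (ng/mL; nmol/L).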

[11] = test system: non-small-cell lung cancer cells (Calu1); test: In vitro potency (CellTiter-Glo, 96 h), Calu1; settings: Homo sapiens, Calu-1, 96 h
Summary of the method: as §3

[12] = test system: acute myeloid leukemia cells (MOLM-13); test: In vitro potency (CellTiter-Glo, 96 h), MOLM-13; settings: Homo sapiens, MOLM-13, 96 h
Summary of the method: as §2

[13] = read-out: IC50 (nmol/L) SU-DHL-4, CPT free drugs, Table 24, CellTiter-Glo after 96 h exposure
[14] = 96 h, read-out: IC50 (nmol/L) Ls174T, CPT free drugs, Table 24, CellTiter-Glo after 96 h exposure
[15] = read-out: IC50 (nmol/L) 786-O, CPT free drugs, Table 24, CellTiter-Glo after 96 h exposure
[16] = read-out: IC50 (nmol/L) Karpas299, CPT free drugs, Table 24, CellTiter-Glo after 96 h exposure
[17] = read-out: IC50 (nmol/L) BxPC3, CPT free drugs, Table 24, CellTiter-Glo after 96 h exposure
[18] = read-out: IC50 (nmol/L) MDAMB231, CPT free drugs, Table 24, CellTiter-Glo after 96 h exposure
[19] = read-out: IC50 (nmol/L) L540cy, CPT free drugs, Table 24, CellTiter-Glo after 96 h exposure
[20] = read-out: IC50 (nmol/L) MOLM-13, CPT free drugs, Table 24, CellTiter-Glo after 96 h exposure
[21] = CPT free drugs, Table 24, CellTiter-Glo after 96 h exposure, read-out: IC50 (nmol/L) SU-DHL-4
[22] = CPT free drugs, Table 24, CellTiter-Glo after 96 h exposure, read-out: IC50 (nmol/L) Ls174T
[23] = CPT free drugs, Table 24, CellTiter-Glo after 96 h exposure, read-out: IC50 (nmol/L) 786-O
[24] = CPT free drugs, Table 24, CellTiter-Glo after 96 h exposure, read-out: IC50 (nmol/L) DEL
[25] = CPT free drugs, Table 24, CellTiter-Glo after 96 h exposure, read-out: IC50 (nmol/L) Karpas299
[26] = CPT free drugs, Table 24, CellTiter-Glo after 96 h exposure, read-out: IC50 (nmol/L) BxPC3
[27] = CPT free drugs, Table 24, CellTiter-Glo after 96 h exposure, read-out: IC50 (nmol/L) DELBVR
[28] = CPT free drugs, Table 24, CellTiter-Glo after 96 h exposure, read-out: IC50 (nmol/L) MDAMB231
[29] = CPT free drugs, Table 24, CellTiter-Glo after 96 h exposure, read-out: IC50 (nmol/L) L540cy
[30] = CPT free drugs, Table 24, CellTiter-Glo after 96 h exposure, read-out: IC50 (nmol/L) A2058
[31] = CPT free drugs, Table 24, CellTiter-Glo after 96 h exposure, read-out: IC50 (nmol/L) Calu1
[32] = CPT free drugs, Table 24, CellTiter-Glo after 96 h exposure, read-out: IC50 (nmol/L) MOLM-13
[33] = read-out: IC50 (nmol/L) DEL, CPT free drugs, Table 24, CellTiter-Glo after 96 h exposure
[34] = read-out: IC50 (nmol/L) DELBVR, CPT free drugs, Table 24, CellTiter-Glo after 96 h exposure

SMILES	IC50 [1, 13]	IC50 [2, 14]	IC50 [3, 15]	IC50 [5, 16]	IC50 [6, 17]	IC50 [8, 18]	IC50 [9, 19]	IC50 ([11]; read-out: IC50 (nmol/L) Calu1)	IC50 [1, 21]	IC50 [2, 22]	IC50 [3, 23]	IC50 [4, 24]	IC50 [5, 25]	IC50 [6, 26]	IC50 [7, 27]	IC50 [8, 28]	IC50 [9, 29]	IC50 [10, 30]	IC50 [11, 31]	IC50 [12, 32]	further results
CC[C@@]1(O)C(=O)OCc2c1cc1n(c2=O)Cc2c-1nc1cc3c(cc1c2CN)CCO3 [Compound 2n]	1 nmol/L	0.8 nmol/L	1 nmol/L	1 nmol/L	3 nmol/L	1 nmol/L	1 nmol/L	21 nmol/L													IC50 ([1]; read-out: SU-DHL-4 IC50, Table 28, CPT free drugs, B-lymphocyte cancer cells SU-DHL4, 96 h, CellTiter-Glo): 1 nmol/L; IC50 ([2]; 96 h, read-out: Ls174T IC50, Table 28, CPT free drugs, Ls174T cells, 96 h, CellTiter-Glo): 4 nmol/L; IC50 ([3]; read-out: 786-O IC50, Table 28, CPT free drugs, renal carcinoma cells 786-O, 96 h, CellTiter-Glo): 5 nmol/L; IC50 ([4]; read-out: DEL IC50, Table 28, CPT free drugs, anaplastic large cell lymphoma cells DEL, CellTiter-Glo): 1 nmol/L; IC50 ([5]; read-out: Karpas299 IC50, Table 28, CPT free drugs, anaplastic large cell lymphoma cells Karpas299, 96 h, CellTiter-Glo): 5 nmol/L; IC50 ([6]; read-out: BxPC3 IC50, Table 28, CPT free drugs, pancreatic cancer cells BxPC3, 96 h, CellTiter-Glo): 3 nmol/L; IC50 ([7]; read-out: DELBVR IC50, Table 28, CPT free drugs, anaplastic large cell lymphoma cells DELBVR, CellTiter-Glo): 1 nmol/L; IC50 ([8]; read-out: MDAMB231 IC50, Table 28, CPT free drugs, breast cancer cells MDA-MB-231, 96 h, CellTiter-Glo): 8 nmol/L; IC50 ([9]; read-out: L540cy IC50, Table 28, CPT free drugs, Hodgkin's lymphoma cells L540cy, CellTiter-Glo): 2 nmol/L; IC50 ([10]; read-out: A2058 IC50): 3 nmol/L; IC50 ([11]; read-out: Calu1 IC50): 18 nmol/L; IC50 [12, 20]: 6 nmol/L; IC50 ([12]; read-out: MOLM-13 IC50, Table 28, CPT free drugs, acute myeloid leukemia cells MOLM-13, 96 h, CellTiter-Glo): 29 nmol/L
CC[C@@]1(O)C(=O)OCc2c1cc1n(c2=O)Cc2c-1nc1cc(C)c(C)c(F)c1c2CN [Compound 2o]									18 nmol/L	19.3 nmol/L	66 nmol/L	10 nmol/L	37 nmol/L	> 1000 nmol/L	16 nmol/L	37 nmol/L	20 nmol/L	18 nmol/L	409 nmol/L	349 nmol/L	
CC[C@@]1(O)C(=O)OCc2c1cc1n(c2=O)Cc2c-1nc1cccc(F)c1c2CN [Compound 2p]									14 nmol/L	15.1 nmol/L	14 nmol/L	4 nmol/L	27 nmol/L	62 nmol/L	8 nmol/L	19 nmol/L	7 nmol/L	11 nmol/L	160 nmol/L	24 nmol/L	
CC[C@@]1(O)C(=O)OCc2c1cc1n(c2=O)Cc2c-1nc1cc(F)c(C)c(Br)c1c2CN [Compound 2q, (S)-11-(aminomethyl)-10-bromo-4-ethyl-8-fluoro-4-hydroxy-9-methyl-1,12-dihydro-14H-pyrano[3′,4′:6,7]indolizino[1,2-b]quinoline-3,14(4H)-dione]	1.5 nmol/L	5 nmol/L	4 nmol/L	2.6 nmol/L	50.8 nmol/L	5.4 nmol/L	4 nmol/L	78 nmol/L													IC50 [4, 33]: 1 nmol/L; IC50 [7, 34]: 1 nmol/L; IC50 ([10]; read-out: IC50 (nmol/L) A2058): 4.8 nmol/L; IC50 [12, 20]: 17.3 nmol/L
CC[C@@]1(O)C(=O)OCc2c1cc1n(c2=O)Cc2c-1nc1ccc(SC(F)(F)F)cc1c2CN [Compound 2r]									16 nmol/L	15.6 nmol/L	21 nmol/L	4.4 nmol/L	37 nmol/L	75 nmol/L	8.4 nmol/L	19 nmol/L	15 nmol/L	11 nmol/L	168 nmol/L	23 nmol/L	
CC[C@@]1(O)C(=O)OCc2c1cc1n(c2=O)Cc2c-1nc1cc(F)c(C)c(C)c1c2CN [Compound 2s]	2 nmol/L	3.7 nmol/L	3 nmol/L	2 nmol/L	7 nmol/L	2 nmol/L	2 nmol/L	22 nmol/L													IC50 [4, 33]: 1 nmol/L; IC50 [7, 34]: 1 nmol/L; IC50 ([10]; read-out: IC50 (nmol/L) A2058): 1 nmol/L; IC50 [12, 20]: 18 nmol/L
CC[C@@]1(O)C(=O)OCc2c1cc1n(c2=O)Cc2c-1nc1ccc3c(c1c2CN)OCC3 [Compound 2t]									51 nmol/L	18 nmol/L	101 nmol/L	18 nmol/L	133 nmol/L	230 nmol/L	33 nmol/L	73 nmol/L	43 nmol/L	39 nmol/L	≥ 1000 nmol/L	179 nmol/L	
CC[C@@]1(O)C(=O)OCc2c1cc1n(c2=O)Cc2c-1nc1ccc3c(c1c2CN)CCC3 [Compound 2u]									4 nmol/L	5.3 nmol/L	10 nmol/L	2 nmol/L	7 nmol/L	23 nmol/L	2 nmol/L	6 nmol/L	5 nmol/L	4 nmol/L	61 nmol/L	48.3 nmol/L	
